What was measured:
[1] = system: Plutella xylostella; experiment: Insecticidal test on Plutella xylostella (dip of Chinese cabbage seedlings with laid eggs); assay type: in vivo; details: 144 h, seedlings with eggs dipped about 30 seconds, 25° C., 6 days after dip treatment, criteria of Test Example 2, read-out: insecticidal effect (corrected mortality rate), activity level
Excerpt: Insecticidal test on Plutella xylostella
Adults of Plutella xylostella were released onto Chinese cabbage seedlings and allowed to lay eggs thereon. At 2 days after the release of the adults, the Chinese cabbage seedlings with laid eggs were dipped for about 30 seconds in agrochemical aqueous dispersions diluted to 500 ppm, each of which contained a different kind of benzoxazole compound represented by the general formula (1) of the present invention as an active ingredient. After air-dried, the seedlings were kept in a thermostatic chamber at 25° C. At 6 days after the dip treatment, the number of hatched larvae per plot was counted, the mortality rate was calculated according to the formula shown below, and the insecticidal effect was evaluated according to the criteria of Test Example 2. This test was conducted in triplicate using 10 adults of Plutella xylostella per plot. Corrected mortality rate (%)=100×(Number of hatched larvae in a non-treatment plot−Number of hatched larvae in a treatment plot)/Number of hatched larvae in a non-treatment plot [Math. 3]

[2] = system: Laodelphax striatella; experiment: Insecticidal test on Laodelphax striatella (rice seedling dip); assay type: in vivo; details: Laodelphax striatellus, 192 h, rice seedlings dipped 30 seconds, 3rd-instar larvae, 8 days after inoculation, read-out: corrected mortality rate, activity level
Excerpt: Insecticidal test on Laodelphax striatella
The benzoxazole compounds represented by the general formula (1) of the present invention or salts thereof were separately dispersed in water and diluted to 500 ppm. Rice plant seedlings (variety: Nihonbare) were dipped in the agrochemical dispersions for 30 seconds. After air-dried, each seedling was put into a separate glass test tube and inoculated with ten 3rd-instar larvae of Laodelphax striatella, and then the glass test tubes were capped with cotton plugs. At 8 days after the inoculation, the numbers of surviving larvae and dead larvae were counted, the corrected mortality rate was calculated according to the formula shown below and evaluated according to the criteria shown below. Corrected mortality rate (%)=100×(Survival rate in a non-treatment plot−Survival rate in a treatment plot)/Survival rate in a non-treatment plot [Math. 2] Criteria A: the corrected mortality rate is 100%. B: the corrected mortality rate is 90 to 99%. C: the corrected mortality rate is 80 to 89%. D: the corrected mortality rate is 50 to 79%.

Row | SMILES | mortality at 500 ppm [1] | mortality at 500 ppm [2]
1 | CCS(=O)(=O)c1cc(C2CC2)cnc1-c1nc2cc(OC(F)(F)F)ccc2o1 [Compound 1-3, 2-(5-Cyclopropyl-3-ethylsulfonylpyridin-2-yl)-5-(trifluoromethoxy)benzo[d]oxazole] | 100% | 100%
2 | CCS(=O)(=O)c1cc(C2CC2)cnc1-c1nc2cc([S+]([O-])C(F)(F)F)ccc2o1 (stereo not shown) [Compound 1-12, 2-(5-Cyclopropyl-3-ethylsulfonylpyridin-2-yl)-5-(trifluoromethylsulfinyl)benzo[d]oxazole] | 100% | 100%

Reference: patent US10575525B2, “Benzoxazole compound or salt thereof, agricultural and horticultural insecticide comprising the compound, and method for using the insecticide” (Nihon Nohyaku Co., Ltd., priority 2016, dated 2020)
